The numbers were not newly measured in patent publication US9333174B2, “Use of simple amino acids to form porous particles” (Civitas Therapeutics, Inc., priority 1999, dated 2016), which cites them from elsewhere.

The conditions of the data set: hydrophobicity scale on which glycine has the value 0.5; value of the amino acid itself.
Regarding `N[C@@H](CCC(=O)O)C(=O)O` [Glutamate], the hydrophobicity is 0.043.

For `CC[C@H](C)[C@H](N)C(=O)O` [Isoleucine], the hydrophobicity is 0.943.

Take `N[C@@H](Cc1ccccc1)C(=O)O` [Phenylalanine]: the hydrophobicity is recorded as 0.501.

As to `NCC(=O)O` [glycine], the hydrophobicity is 0.5.
